Reference: ChEMBL document CHEMBL1275354, “Anticonvulsant activity of 2,4(1H)-diarylimidazoles in mice and rats acute seizure models” (Bioorg Med Chem, 2010)
One block for each compound: values may come before it. Active and inactive are the calls of the source. The rule behind the calls is not given here.

Key:
Mus musculus [1] = test: Anticonvulsant activity in albino CF1 mouse assessed as protection against maximal electroshock-induced seizures at 100 mg/kg, ip after 0.5 hrs; assay type: functional, organism-based; set-up: dose 100 mg/kg
Mus musculus [2] = test: Neurotoxicity in ip dosed albino CF1 mouse assessed as minimum dose required to cause toxicity after 0.5 hrs by rotarod test; assay type: organism-based; settings: in vivo
Mus musculus [3] = test: Anticonvulsant activity against subcutaneous metrazole-induced seizures in ip dosed albino CF1 mouse assessed as minimum effective dose after 4 hrs; assay type: functional; settings: albino CF1, 4 h, read-out: MED
Mus musculus [4] = test: Anticonvulsant activity in albino CF1 mouse assessed as protection against subcutaneous metrazole-induced seizures at 100 mg/kg, ip after 0.5 hrs; assay type: functional, organism-based; set-up: dose 100 mg/kg
Mus musculus [5] = test: Anticonvulsant activity in albino CF1 mouse assessed as protection against maximal electroshock-induced seizures at 300 mg/kg, ip after 0.5 hrs; assay type: functional, organism-based; set-up: dose 300 mg/kg
Mus musculus [6] = test: Anticonvulsant activity against subcutaneous metrazole-induced seizures in ip dosed albino CF1 mouse assessed as minimum effective dose after 0.5 hrs; assay type: functional; settings: albino CF1, 0.5 h, read-out: MED
Mus musculus [7] = test: Neurotoxicity in albino CF1 mouse assessed as minimal motor impairment at 30 to 300 mg/kg, po after 4 hrs by rotarod test; assay type: toxicity, organism-based; set-up: dose 30-300 mg/kg, route oral; settings: in vivo
Mus musculus [8] = test: Anticonvulsant activity in albino CF1 mouse assessed as protection against maximal electroshock-induced seizures at 100 mg/kg, ip after 4 hrs; assay type: functional, organism-based; set-up: dose 100 mg/kg
Mus musculus [9] = test: Anticonvulsant activity in albino CF1 mouse assessed as protection against subcutaneous metrazole-induced seizures at 30 mg/kg, ip after 0.5 hrs; assay type: functional, organism-based; set-up: dose 30 mg/kg
Mus musculus [10] = test: Neurotoxicity in albino CF1 mouse assessed as minimal motor impairment at 30 mg/kg, ip after 4 hrs by rotarod test; assay type: toxicity, organism-based; set-up: dose 30 mg/kg, route intraperitoneal; settings: in vivo
Mus musculus [11] = test: Anticonvulsant activity in albino CF1 mouse assessed as protection against subcutaneous metrazole-induced seizures at 300 mg/kg, ip after 0.5 hrs; assay type: functional, organism-based; set-up: dose 300 mg/kg
Mus musculus [12] = test: Anticonvulsant activity in albino CF1 mouse assessed as protection against maximal electroshock-induced seizures at 30 mg/kg, ip after 0.5 hrs; assay type: functional, organism-based; set-up: dose 30 mg/kg
Mus musculus [13] = test: Neurotoxicity in albino CF1 mouse assessed as minimal motor impairment at 100 mg/kg, ip after 4 hrs by rotarod test; assay type: toxicity, organism-based; set-up: dose 100 mg/kg, route intraperitoneal; settings: in vivo
Mus musculus [14] = test: Neurotoxicity in albino CF1 mouse assessed as minimal motor impairment at 30 mg/kg, ip after 0.5 hrs by rotarod test; assay type: toxicity, organism-based; set-up: dose 30 mg/kg, route intraperitoneal; settings: in vivo
Mus musculus [15] = test: Anticonvulsant activity against maximal electroshock-induced seizures in ip dosed albino CF1 mouse assessed as minimum effective dose after 4 hrs; assay type: functional; settings: read-out: MED
Mus musculus [16] = test: Anticonvulsant activity in albino CF1 mouse assessed as protection against maximal electroshock-induced seizures at 100 mg/kg, ip after 2 hrs; assay type: functional, organism-based; set-up: dose 100 mg/kg
Mus musculus [17] = test: Anticonvulsant activity in albino CF1 mouse assessed as protection against maximal electroshock-induced seizures at 300 mg/kg, ip after 4 hrs; assay type: functional, organism-based; set-up: dose 300 mg/kg
Mus musculus [18] = test: Anticonvulsant activity in albino CF1 mouse assessed as protection against subcutaneous metrazole-induced seizures at 300 mg/kg, ip after 4 hrs; assay type: functional, organism-based; set-up: dose 300 mg/kg
Mus musculus [19] = test: Anticonvulsant activity in albino CF1 mouse assessed as protection against subcutaneous metrazole-induced seizures at 30 mg/kg, ip after 4 hrs; assay type: functional, organism-based; set-up: dose 30 mg/kg
Mus musculus [20] = test: Neurotoxicity in ip dosed albino CF1 mouse assessed as minimum dose required to cause toxicity after 4 hrs by rotarod test; assay type: organism-based; settings: in vivo
Mus musculus [21] = test: Neurotoxicity in albino CF1 mouse assessed as minimal motor impairment at 300 mg/kg, ip after 4 hrs by rotarod test; assay type: toxicity, organism-based; set-up: dose 300 mg/kg, route intraperitoneal; settings: in vivo
Mus musculus [22] = test: Neurotoxicity in albino CF1 mouse assessed as minimal motor impairment at 30 to 300 mg/kg, ip after 0.5 hrs by rotarod test; settings: in vivo
Mus musculus [23] = test: Anticonvulsant activity against maximal electroshock-induced seizures in ip dosed albino CF1 mouse assessed as minimum effective dose after 0.5 hrs; assay type: functional; settings: read-out: MED
Mus musculus [24] = test: Anticonvulsant activity in albino CF1 mouse assessed as protection against subcutaneous metrazole-induced seizures at 100 mg/kg, ip after 4 hrs; assay type: functional, organism-based; set-up: dose 100 mg/kg
Mus musculus [25] = test: Neurotoxicity in albino CF1 mouse assessed as minimal motor impairment at 100 mg/kg, ip after 0.5 hrs by rotarod test; assay type: toxicity, organism-based; set-up: dose 100 mg/kg, route intraperitoneal; settings: in vivo
Mus musculus [26] = test: Anticonvulsant activity in albino CF1 mouse assessed as protection against maximal electroshock-induced seizures at 30 mg/kg, ip after 4 hrs; assay type: functional, organism-based; set-up: dose 30 mg/kg
Rattus norvegicus [27] = test: Anticonvulsant activity in albino Sprague-Dawley rat assessed as protection against maximal electroshock-induced seizures at 30 mg/kg, po after 1 hr; assay type: functional, organism-based; set-up: dose 30 mg/kg
Mus musculus [28] = test: Anticonvulsant activity in albino CF1 mouse assessed as protection against maximal electroshock-induced seizures at 230 mg/kg, ip after 0.25 hrs; assay type: functional, organism-based; set-up: dose 230 mg/kg
[29] = target: Sodium channel protein type 2 subunit alpha (Homo sapiens, UniProt Q99250); test: Inhibition of human NaV1.2 expressed in HEK cells at -60 mV holding potential by patch clamp recording technique; assay type: cell-based, HEK293
Mus musculus [30] = test: Anticonvulsant activity in albino CF1 mouse assessed as protection against subcutaneous metrazole-induced seizures at 125 mg/kg, ip after 0.25 hrs; assay type: functional, organism-based; set-up: dose 125 mg/kg
Mus musculus [31] = organism: Mus musculus; test: Protective index, ratio of TD50 for albino CF1 mouse by rotarod test to ED50 for albino CF1 mouse by maximal electroshock seizures test; assay type: functional
Mus musculus [32] = test: Anticonvulsant activity ip dosed albino CF1 mouse assessed as protection against maximal electroshock-induced seizures after 0.25 hrs; assay type: functional
Mus musculus [33] = test: Neurotoxicity in albino CF1 mouse assessed as minimal motor impairment at 500 mg/kg, ip after 0.25 hrs by rotarod test; assay type: toxicity, organism-based; set-up: dose 500 mg/kg, route intraperitoneal; settings: in vivo
Rattus norvegicus [34] = test: Anticonvulsant activity in albino Sprague-Dawley rat assessed as protection against maximal electroshock-induced seizures at 30 mg/kg, po after 4 hrs; assay type: functional, organism-based; set-up: dose 30 mg/kg
Rattus norvegicus [35] = test: Anticonvulsant activity in albino Sprague-Dawley rat assessed as protection against maximal electroshock-induced seizures at 30 mg/kg, po after 0.25 hrs; assay type: functional, organism-based; set-up: dose 30 mg/kg
Mus musculus [36] = test: Anticonvulsant activity in albino CF1 mouse assessed as protection against subcutaneous metrazole-induced seizures at 250 mg/kg, ip after 0.25 hrs; assay type: functional, organism-based; set-up: dose 250 mg/kg
Mus musculus [37] = test: Neurotoxicity in albino CF1 mouse assessed as minimal motor impairment at 350 mg/kg, ip after 0.25 hrs by rotarod test; assay type: toxicity, organism-based; set-up: dose 350 mg/kg, route intraperitoneal; settings: in vivo
Rattus norvegicus [38] = test: Anticonvulsant activity in albino Sprague-Dawley rat assessed as protection against maximal electroshock-induced seizures at 30 mg/kg, po after 2 hrs; assay type: functional, organism-based; set-up: dose 30 mg/kg
Rattus norvegicus [39] = test: Anticonvulsant activity in albino Sprague-Dawley rat assessed as protection against maximal electroshock-induced seizures at 30 mg/kg, po after 0.5 hrs; assay type: functional, organism-based; set-up: dose 30 mg/kg
Mus musculus [40] = test: Anticonvulsant activity ip dosed albino CF1 mouse assessed as protection against subcutaneous metrazole-induced seizures after 0.25 hrs; assay type: functional; settings: albino CF1, 0.25 h
Rattus norvegicus [41] = test: Neurotoxicity in albino Sprague-Dawley rat assessed as minimal motor impairment at 30 mg/kg, po by rotarod test; assay type: toxicity, organism-based; set-up: dose 30 mg/kg, route oral; settings: in vivo
Mus musculus [42] = test: Neurotoxicity in ip dosed albino CF1 mouse assessed as minimal motor impairment after 0.25 hrs by rotarod test; assay type: toxicity, organism-based; settings: in vivo
Mus musculus [43] = test: Neurotoxicity in albino CF1 mouse assessed as minimal motor impairment at 300 mg/kg, ip after 0.5 hrs by rotarod test; assay type: toxicity, organism-based; set-up: dose 300 mg/kg, route intraperitoneal; settings: in vivo

Sodium channel protein type 2 subunit alpha, sequence (Q99250 whole entry): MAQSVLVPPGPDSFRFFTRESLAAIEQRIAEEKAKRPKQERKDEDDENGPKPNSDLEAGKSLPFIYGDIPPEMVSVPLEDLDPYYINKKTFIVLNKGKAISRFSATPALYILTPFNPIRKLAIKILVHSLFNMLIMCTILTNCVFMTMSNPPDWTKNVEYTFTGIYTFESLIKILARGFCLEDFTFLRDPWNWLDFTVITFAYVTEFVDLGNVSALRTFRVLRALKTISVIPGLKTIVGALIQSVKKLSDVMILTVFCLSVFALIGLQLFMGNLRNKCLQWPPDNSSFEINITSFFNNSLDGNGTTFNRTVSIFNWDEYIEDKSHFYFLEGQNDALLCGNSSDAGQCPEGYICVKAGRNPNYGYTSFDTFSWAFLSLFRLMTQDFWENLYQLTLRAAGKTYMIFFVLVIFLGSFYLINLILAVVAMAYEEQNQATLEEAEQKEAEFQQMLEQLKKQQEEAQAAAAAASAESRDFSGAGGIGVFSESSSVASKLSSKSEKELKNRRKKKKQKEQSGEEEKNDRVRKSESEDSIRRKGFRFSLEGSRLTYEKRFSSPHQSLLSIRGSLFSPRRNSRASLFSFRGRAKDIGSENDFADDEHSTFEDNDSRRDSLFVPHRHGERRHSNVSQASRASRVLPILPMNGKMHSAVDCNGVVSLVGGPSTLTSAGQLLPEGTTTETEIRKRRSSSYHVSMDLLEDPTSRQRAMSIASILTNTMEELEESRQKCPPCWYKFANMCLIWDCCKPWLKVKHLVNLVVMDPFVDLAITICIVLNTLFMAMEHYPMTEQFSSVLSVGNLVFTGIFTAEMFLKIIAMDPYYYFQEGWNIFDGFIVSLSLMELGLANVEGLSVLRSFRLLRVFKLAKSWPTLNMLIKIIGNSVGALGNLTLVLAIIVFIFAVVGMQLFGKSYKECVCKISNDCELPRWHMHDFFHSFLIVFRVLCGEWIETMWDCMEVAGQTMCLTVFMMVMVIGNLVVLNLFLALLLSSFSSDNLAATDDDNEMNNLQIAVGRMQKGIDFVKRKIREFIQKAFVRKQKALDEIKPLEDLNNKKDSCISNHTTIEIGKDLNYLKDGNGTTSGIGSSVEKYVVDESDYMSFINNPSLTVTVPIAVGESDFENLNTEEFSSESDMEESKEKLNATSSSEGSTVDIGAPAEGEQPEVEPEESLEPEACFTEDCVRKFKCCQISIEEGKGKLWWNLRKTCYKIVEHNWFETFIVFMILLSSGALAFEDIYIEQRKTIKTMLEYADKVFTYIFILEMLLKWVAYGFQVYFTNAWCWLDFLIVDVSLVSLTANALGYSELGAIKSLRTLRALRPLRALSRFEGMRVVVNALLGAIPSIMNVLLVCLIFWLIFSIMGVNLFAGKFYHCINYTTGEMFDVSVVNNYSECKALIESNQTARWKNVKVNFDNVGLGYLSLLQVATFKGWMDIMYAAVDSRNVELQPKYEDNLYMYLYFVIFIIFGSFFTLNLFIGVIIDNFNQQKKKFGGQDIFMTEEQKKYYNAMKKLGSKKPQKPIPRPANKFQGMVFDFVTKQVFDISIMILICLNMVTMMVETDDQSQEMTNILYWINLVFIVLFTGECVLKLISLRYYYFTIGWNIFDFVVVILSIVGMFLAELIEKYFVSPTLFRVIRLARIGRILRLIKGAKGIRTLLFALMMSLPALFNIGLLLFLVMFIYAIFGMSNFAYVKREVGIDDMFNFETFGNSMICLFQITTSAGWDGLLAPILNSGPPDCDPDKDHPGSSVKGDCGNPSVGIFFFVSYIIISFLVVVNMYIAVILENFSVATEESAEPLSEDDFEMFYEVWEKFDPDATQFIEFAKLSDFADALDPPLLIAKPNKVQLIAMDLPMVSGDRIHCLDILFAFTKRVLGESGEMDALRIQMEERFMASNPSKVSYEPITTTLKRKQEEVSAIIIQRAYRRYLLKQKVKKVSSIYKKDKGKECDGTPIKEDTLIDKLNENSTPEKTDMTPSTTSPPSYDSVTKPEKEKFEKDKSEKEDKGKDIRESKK

SMILES: FC(F)(F)c1cccc(-c2nc(-c3ccccc3)c[nH]2)c1
Activity (Mus musculus [1]): inactive
MED (Mus musculus [2]): 100 mg/kg
minimal effective dose (Mus musculus [3]): > 300 mg/kg
Activity (Mus musculus [4]): inactive
Activity (Mus musculus [5]): inactive
minimal effective dose (Mus musculus [6]): > 300 mg/kg
Activity (Mus musculus [7]): Non-toxic
Activity (Mus musculus [8]): inactive
Activity (Mus musculus [9]): inactive
Activity (Mus musculus [10]): Non-toxic
Activity (Mus musculus [11]): inactive
Activity (Mus musculus [12]): inactive
Activity (Mus musculus [13]): Non-toxic
Activity (Mus musculus [14]): Non-toxic
minimal effective dose (Mus musculus [15]): 100 mg/kg
Activity (Mus musculus [16]): inactive
Activity (Mus musculus [17]): Active
Activity (Mus musculus [18]): inactive
Activity (Mus musculus [19]): inactive
MED (Mus musculus [20]): > 300 mg/kg
Activity (Mus musculus [21]): Non-toxic
Activity (Mus musculus [22]): Non-toxic
minimal effective dose (Mus musculus [23]): > 300 mg/kg
Activity (Mus musculus [24]): inactive
Activity (Mus musculus [25]): Non-toxic
Activity (Mus musculus [26]): inactive

IC50 [29]: 17.9 µM
SMILES: Clc1cccc(-c2c[nH]c(-c3ccccc3)n2)c1
Activity (Rattus norvegicus [27]): inactive
Activity (Mus musculus [28]): Active
Activity (Mus musculus [1]): Active
Activity (Mus musculus [30]): inactive
PI (Mus musculus [31]): >3.6
ED50 (Mus musculus [32]): 137 mg/kg
MED (Mus musculus [2]): 100 mg/kg
minimal effective dose (Mus musculus [3]): > 300 mg/kg
Activity (Mus musculus [4]): inactive
Activity (Mus musculus [5]): Active
minimal effective dose (Mus musculus [6]): > 300 mg/kg
Activity (Mus musculus [7]): Non-toxic
Activity (Mus musculus [8]): inactive
Activity (Mus musculus [33]): Non-toxic
Activity (Mus musculus [9]): inactive
Activity (Rattus norvegicus [34]): inactive
Activity (Mus musculus [10]): Non-toxic
Activity (Mus musculus [11]): inactive
Activity (Mus musculus [12]): inactive
Activity (Rattus norvegicus [35]): inactive
Activity (Mus musculus [13]): Non-toxic
Activity (Mus musculus [14]): Non-toxic
minimal effective dose (Mus musculus [15]): 100 mg/kg
Activity (Mus musculus [17]): Active
Activity (Mus musculus [18]): inactive
Activity (Mus musculus [19]): inactive
Activity (Mus musculus [36]): inactive
Activity (Mus musculus [37]): Non-toxic
MED (Mus musculus [20]): > 300 mg/kg
Activity (Rattus norvegicus [38]): inactive
Activity (Mus musculus [21]): Non-toxic
Activity (Mus musculus [22]): Non-toxic
minimal effective dose (Mus musculus [23]): > 30 mg/kg
Activity (Rattus norvegicus [39]): inactive
ED50 (Mus musculus [40]): > 250 mg/kg
Activity (Mus musculus [24]): inactive
Activity (Rattus norvegicus [41]): Non-toxic
TD50 (Mus musculus [42]): > 500 mg/kg
Activity (Mus musculus [25]): Non-toxic
Activity (Mus musculus [26]): inactive

SMILES: COc1ccc(-c2c[nH]c(-c3ccccc3)n2)cc1
Activity (Rattus norvegicus [27]): inactive
Activity (Mus musculus [1]): Active
MED (Mus musculus [2]): 100 mg/kg
minimal effective dose (Mus musculus [3]): > 300 mg/kg
Activity (Mus musculus [4]): inactive
Activity (Mus musculus [5]): Active
minimal effective dose (Mus musculus [6]): 100 mg/kg
Activity (Mus musculus [9]): inactive
Activity (Rattus norvegicus [34]): inactive
Activity (Mus musculus [10]): Non-toxic
Activity (Mus musculus [11]): Active
Activity (Mus musculus [12]): inactive
Activity (Rattus norvegicus [35]): inactive
Activity (Mus musculus [13]): Non-toxic
Activity (Mus musculus [14]): Non-toxic
minimal effective dose (Mus musculus [15]): 100 mg/kg
Activity (Mus musculus [17]): Active
Activity (Mus musculus [18]): inactive
Activity (Mus musculus [19]): inactive
MED (Mus musculus [20]): 100 mg/kg
Activity (Mus musculus [43]): Toxic
Activity (Rattus norvegicus [38]): inactive
Activity (Mus musculus [21]): Toxic
Activity (Mus musculus [22]): Non-toxic
minimal effective dose (Mus musculus [23]): > 30 mg/kg
Activity (Rattus norvegicus [39]): inactive
Activity (Mus musculus [24]): inactive
Activity (Rattus norvegicus [41]): Non-toxic
Activity (Mus musculus [25]): Non-toxic
Activity (Mus musculus [26]): inactive
